Measured values: patent US11168131B2, “Antibody molecule-drug conjugates and uses thereof” (priority 2015, dated 2021)

Tests used:
E. coli = test: Minimal inhibitory concentration (MIC) assay, broth microdilution; assay type: cell-based, Escherichia coli; conditions: for MIC (mg/ml) Eco 43745: in the presence of PBS
K. pneumoniae = test: as above; assay type: cell-based, Klebsiella pneumoniae; conditions: in the presence of PBS
P. aeruginosa [1] = test: as above; assay type: cell-based, Pseudomonas aeruginosa; conditions: for MIC (mg/ml) Pae 27853 / MIC (mg/ml) Pae 39324: in the presence of PBS
S. aureus = test: as above; assay type: cell-based, Staphylococcus aureus; conditions: in the presence of PBS
P. aeruginosa [2] = test: MIC in the presence of 50% human serum (hsMIC); assay type: cell-based, Pseudomonas aeruginosa; conditions: for hsMIC/MIC: Pae 27853, ratio of hsMIC to MIC; for 50% hsMIC (μg/ml) Pae 27853: in the presence of 50% human serum
Experimental: In an embodiment, the MIC is determined in the presence of phosphate-buffered saline (PBS). In an embodiment, the MIC or hsMIC is determined on per ADC basis. In an embodiment, the MIC or hsMIC is determined on per payload or antimicrobial peptide basis.

[3] = test system: multiple drug resistant (MDR) strains of P. aeruginosa; test: Microbial killing assay against multiple drug resistant strains; assay type: cell-based, Pseudomonas aeruginosa; conditions: assay as in Example 15; for 50% Killing Activity BAA-2108: MDR P. aeruginosa strain BAA-2108; for 50% Killing Activity BAA-2110: MDR P. aeruginosa strain BAA-2110; for 50% Killing Activity BAA-2114: MDR P. aeruginosa strain BAA-2114; for 50% Killing Activity Pae 27853: P. aeruginosa strain 27853
Experimental: The microbial killing assay was performed as follows. Bacterial cells were grown aerobically overnight on agar plates at 37° C. Overnight plates were used to seed 30 ml cultures of growth media in 250 ml vented flasks. Cultures were grown aerobically at 37° C., shaking at 150 rpm. Growth was monitored at A600 […] and bacterial cells were harvested at mid-log growth. Ten ml of culture was pelleted at 4000×G for 10 minutes and washed one time with PBS plus 1% BSA before re-suspending in 2 ml PBS+BSA. […] Cultures were diluted to 1×10^4 cells/ml in PBS plus BSA. Test articles were diluted in PBS+1% BSA and 50 μl per concentration tested was loaded into a 96 well polypropylene microtiter plate. Fifty μl of diluted culture was added to all test wells as well as no compound control wells. Plates were shaken and incubated at 37° C., 90 minutes, static. Ten μl from each assay well was plated onto agar plates and incubated at 37° C. overnight. Percent killing was determined by the CFU for test wells compared to the CFU for no compound control wells.

Substance | MIC (mg/ml) Eco 43745 (E. coli) [mg/mL] | MIC (mg/ml) Pae 27853 (P. aeruginosa [1]) [mg/mL] | MIC (mg/ml) Pae 39324 (P. aeruginosa [1]) [mg/mL] | hsMIC/MIC (P. aeruginosa [2]) | 50% hsMIC (μg/ml) Pae 27853 (P. aeruginosa [2]) [µg/mL] | further results
GGGRGLRRLGRKIAHGVKKYGPTVLRIIKKYG [Peptide P294] | 0.002 | – | – | – | – | MIC (mg/ml) Kpn 700603 (K. pneumoniae): 0.008 mg/mL
GGG-D-Dab-cyclic(L-Dab-L-Dab-D-Leu-L-Phe-L-Dab-L-Dab-L-Leu) [GGG-Octapeptin] | – | 2 | 2 | 1 | 2 | MIC (mg/ml) Sau 29213 (S. aureus): >0.128 mg/mL; MIC (mg/ml) Kpn 700603 (K. pneumoniae): >0.128 mg/mL
GGGKFFRKLKKSVKKRAKEFFKKPRVIGVSIPF [Peptide P297] | 0.002 | 4 | 2 | 2 | 8 | 50% Killing Activity BAA-2108 [3]: 0.28 µg/mL; 50% Killing Activity BAA-2110 [3]: 0.28 µg/mL; 50% Killing Activity BAA-2114 [3]: 0.07 µg/mL; 50% Killing Activity Pae 27853 [3]: 0.04 µg/mL
GGGGLRKRLRKFRNKIKEKLKKIGQKIQGLLPKLA [Peptide P271] | 0.004 | – | – | – | – | –
GLRKRLRKFRNKIKEKLKKIGQKIQGLLPKLA [Peptide 33] | – | – | – | – | – | MIC μg/ml Pae 27853 (P. aeruginosa [1]): 8 µg/mL; MIC μg/ml Eco 25922 (E. coli): 8 µg/mL
GGGGRFKRFRKKFKKLFKKLSPVIPLLHLG [Peptide P295] | – | 4 | 4 | 0.5 | 2 | 50% Killing Activity BAA-2108 [3]: 0.6 µg/mL; 50% Killing Activity BAA-2110 [3]: 0.6 µg/mL; 50% Killing Activity BAA-2114 [3]: 0.14 µg/mL; 50% Killing Activity Pae 27853 [3]: 0.3 µg/mL
RLGNFFRKAKKKIGRGLKKIGQKIKDFLGNLVPRTES [peptide 128] | – | – | – | – | – | MIC μg/ml Pae 27853 (P. aeruginosa [1]): 8 µg/mL
GGGLLGDFFRKSKEKIGKEFKRIVQRIKDFLRNLVPRTES [Peptide P265] | 0.008 | – | – | >4 | >128 | MIC (mg/ml) Kpn 700603 (K. pneumoniae): >0.128 mg/mL
GGGGLRRLGRKIAHGIKKYGPTILRIIRIAG [Peptide P293] | 0.004 | 8 | 2 | – | – | MIC (mg/ml) Kpn 700603 (K. pneumoniae): 0.004 mg/mL
Ceftazadime [reference compound] | – | 1 | 1 | 1 | 1 | MIC (mg/ml) Sau 29213 (S. aureus): 0.004 mg/mL
(MAL)-(EG3)-GIGKFLKKAKKFGKAFVKILKK [peptide 21] | – | – | – | – | – | MIC μg/ml Eco 25922 (E. coli): 8 µg/mL
GIGKFLKKAKKFGKAFVKILKKGGGGSGGGGS [peptide 24] | – | – | – | – | – | MIC μg/ml Pae 27853 (P. aeruginosa [1]): 8 µg/mL
GGGGIGKFLKKAKKFGKAFVKILKK [Peptide P261] | 0.004 | – | – | – | – | –
GGGKRFKKFFKKLKNSVKKRAKKFFKKPRVIGVSIPF [Peptide P296] | 0.004 | 4 | 2 | 0.25 | 1 | –
GAFGNFLKGVAKKAGLKILSIAQCKLFGTC [peptide 70] | – | – | – | – | – | MIC μg/ml Pae 27853 (P. aeruginosa [1]): 8 µg/mL; MIC μg/ml Eco 25922 (E. coli): 4 µg/mL
GIGKFLKKAKKFGKAFVKILKK [peptide 109] | – | – | – | – | – | MIC μg/ml Pae 27853 (P. aeruginosa [1]): 8 µg/mL; MIC μg/ml Eco 25922 (E. coli): 4 µg/mL
GGGGSGGGGSGIGKFLKKAKKFGKAFVKILKK [peptide 23] | – | – | – | – | – | MIC μg/ml Eco 25922 (E. coli): 8 µg/mL
